In brackets after ≈: the same amount, converted by molar mass.
Legend:
[1] = tested on: Hep-2 (laryngeal carcinoma); assay: MTT growth inhibition of human solid tumor cells, 72 h; type: cell-based; conditions: Homo sapiens, HEp-2
Method: (§1) Human solid tumor cell lines: Hep-2 (laryngeal carcinoma), A549 (human lung cancer), CaES-17 (esophageal cancer cell), PC-3 (prostate cancer), CNE (nasopharyngeal carcinoma cell), and SK-OV-3 (ovarian cancer cell), all of which are purchased from China Center For Type Culture Collection; RKO (human colon adenocarcinoma cell), MGC 803 (human gastric cancer cell), MG63 (osteosarcoma) and U87 MG (malignant glioma cell), all of which are purchased from Fuxiang Bio-tech Co. Ltd., Shanghai, China; PANC-1 (pancreatic cancer), Huh7 (human liver cancer cell), Becap37 (human breast cancer cell), and Hela (human cervical cancer cell), all of which are donated by Cancer Research Institute of Zhejiang University, China.
(§2) Obtaining 4000 well-growing human solid tumor cells and inoculating them into wells of a 96-well cell culture plate. The culture medium is DMEM High Glucose cell culture medium containing 10% fetal bovine serum. The plate is placed in a carbon dioxide cell incubator (5% CO2) at 37° C. and incubated for 24 hours. After adding the homoharringtonine derivatives of different concentration and mixing uniformly, the plate is placed in a carbon dioxide cell incubator (5% CO2) at 37° C. and incubated for 72 hours. Then the viable cell concentration is determined by the MTT method and the cell viability (%) after drug treatment is calculated. In this experiment, the cell viability of control group (not treated with any compound) is set as 100%.

[2] = tested on: U87 MG (malignant glioma cell); assay: as above; type: cell-based; conditions: Homo sapiens, U-87 MG
Method: as §1, §2

[3] = tested on: RKO (human colon adenocarcinoma cell); assay: as above; type: cell-based; conditions: Homo sapiens, MTT
Method: as §1, §2

A549 (human lung cancer) = assay: as above; type: cell-based; conditions: Homo sapiens, A549
Method: as §1, §2

[4] = tested on: CaES-17 (esophageal cancer cell); assay: as above; type: cell-based; conditions: Homo sapiens, CaEs17
Method: as §1, §2

PC-3 (prostate cancer) = assay: as above; type: cell-based; conditions: Homo sapiens, MTT
Method: as §1, §2

[5] = tested on: CNE (nasopharyngeal carcinoma cell); assay: as above; type: cell-based; conditions: Homo sapiens, MTT
Method: as §1, §2

MG63 (osteosarcoma) = assay: as above; type: cell-based; conditions: Homo sapiens, MG-63, MTT
Method: as §1, §2

[6] = tested on: Becap37 (human breast cancer cell); assay: as above; type: cell-based; conditions: Homo sapiens
Method: as §1, §2

[7] = tested on: PANC-1 (pancreatic cancer); assay: as above; type: cell-based; conditions: Homo sapiens, PANC-1, MTT
Method: as §1, §2

[8] = tested on: SK-OV-3 (ovarian cancer cell); assay: as above; type: cell-based; conditions: Homo sapiens, SK-OV-3, MTT
Method: as §1, §2

[9] = tested on: Huh7 (human liver cancer cell); assay: as above; type: cell-based; conditions: Homo sapiens, Huh-7
Method: as §1, §2

[10] = tested on: MGC 803 (human gastric cancer cell); assay: as above; type: cell-based; conditions: Homo sapiens, MGC-803
Method: as §1, §2

[11] = tested on: Hela (human cervical cancer cell); assay: as above; type: cell-based; conditions: Homo sapiens, HeLa, MTT
Method: as §1, §2

[12] = tested on: RPMI8226 (multiple myeloma); assay: MTT growth inhibition of multiple myeloma cells, 72 h; type: cell-based, human; conditions: for IC50 / IC90: Homo sapiens, RPMI-8226, MTT
Method: Multiple myeloma and lymphoma cell lines: RPMI8226 (multiple myeloma), purchased from Fuxiang Bio-tech Co. Ltd., Shanghai, China.
(§3) Obtaining 6000 well-growing leukemia cells and inoculating them into wells of a 96-well cell culture plate. The culture medium is the 1640 cell culture medium containing 10% fetal bovine serum. After adding the homoharringtonine derivatives of different concentrations and mixing uniformly, placing the plate in a carbon dioxide cell incubator (5% CO2) at 37° C. and incubated for 72 hours. Then the viable cell concentration is determined by the MTT method. In this experiment, the cell viability in control group (not treated with any compound) is set as 100%. On such basis, the cell viability (%) after treatment and the 50% inhibiting concentration of the compound for the leukemia cell growth at 72 hours (IC50 value of 72 hours) are calculated.

[13] = tested on: H9 (acute lymphoblastic leukemia, ALL); assay: MTT growth inhibition of leukemia cells, 72 h; type: cell-based, human; conditions: Homo sapiens, MTT
Excerpt: (§4) Leukemia cell lines: leukemia cell lines: K562/adr (drug-resistant, chronic myeloid leukemia, CML), NB4 (acute promyelocytic leukemia, AML), Kasumi-1 (acute myeloid leukemia M2 type, AML-M2), Jurkat (acute lymphoblastic leukemia, ALL), all of which are donated by Cancer Research Institute of Zhejiang University, China; and H9 (acute lymphoblastic leukemia, ALL), which is purchased from China Center for Type Culture Collection (CCTCC).
(§5) Reagents: The standard sample of homoharringtonine (HHT) is purchased from Taihua Natural Plant Pharmaceutical Co., Ltd., Shaanxi, China, the homoharringtonine derivatives of the present invention.
as §3

[14] = tested on: NB4 (acute promyelocytic leukemia, AML); assay: MTT growth inhibition of leukemia cells, 72 h; type: cell-based, human; conditions: Homo sapiens, MTT
Excerpt: as §4, §5, §3

[15] = tested on: Kasumi-1 (acute myeloid leukemia M2 type, AML-M2); assay: MTT growth inhibition of leukemia cells, 72 h; type: cell-based, human; conditions: Homo sapiens, Kasumi 1, MTT
Excerpt: as §4, §5, §3

[16] = tested on: Jurkat (acute lymphoblastic leukemia, ALL); assay: MTT growth inhibition of leukemia cells, 72 h; type: cell-based, human; conditions: Homo sapiens, Jurkat
Excerpt: as §4, §5, §3

[17] = tested on: K562/adr (drug-resistant, chronic myeloid leukemia, CML); assay: MTT growth inhibition of leukemia cells, 72 h; type: cell-based, human; conditions: Homo sapiens, K562/Adr, MTT
Excerpt: as §4, §5, §3

Compound: COC(=O)C[C@@](CCCC(C)(C)OC(C)=O)(OC(C)=O)C(=O)O[C@@H]1C(OC)=C[C@]23CCCN2CCc2cc4c(cc2[C@H]13)OCO4 [BS-HH-001, 2,6-diacetylhomoharringtonine]
- IC50 [1]: 0.026 µg/mL (≈ 0.0413 µM)
- IC90 [1]: > 16 µg/mL
- IC50 [2]: 0.018 µg/mL (≈ 0.0286 µM)
- IC90 [2]: 0.11 µg/mL (≈ 0.175 µM)
- IC50 [3]: 0.007 µg/mL (≈ 0.0111 µM)
- IC90 [3]: 0.02 µg/mL (≈ 0.0318 µM)
- IC50 (A549 (human lung cancer)): 0.03 µg/mL (≈ 0.0476 µM)
- IC90 (A549 (human lung cancer)): > 16 µg/mL
- IC50 [4]: 0.062 µg/mL (≈ 0.0985 µM)
- IC90 [4]: > 16 µg/mL
- IC50 (PC-3 (prostate cancer)): 0.029 µg/mL (≈ 0.0461 µM)
- IC90 (PC-3 (prostate cancer)): > 16 µg/mL
- IC50 [5]: 0.062 µg/mL (≈ 0.0985 µM)
- IC90 [5]: > 16 µg/mL
- IC50 (MG63 (osteosarcoma)): 0.02 µg/mL (≈ 0.0318 µM)
- IC90 (MG63 (osteosarcoma)): 2.4 µg/mL (≈ 3.81 µM)
- IC50 [6]: 0.015 µg/mL (≈ 0.0238 µM)
- IC90 [6]: 14 µg/mL (≈ 22.2 µM)
- IC50 [7]: 0.036 µg/mL (≈ 0.0572 µM)
- IC90 [7]: > 16 µg/mL
- IC50 [8]: 0.12 µg/mL (≈ 0.191 µM)
- IC90 [8]: > 16 µg/mL
- IC50 [9]: 0.016 µg/mL (≈ 0.0254 µM)
- IC90 [9]: 0.13 µg/mL (≈ 0.206 µM)
- IC50 [10]: 0.03 µg/mL (≈ 0.0476 µM)
- IC90 [10]: 0.66 µg/mL (≈ 1.05 µM)
- IC50 [11]: 0.026 µg/mL (≈ 0.0413 µM)
- IC90 [11]: > 16 µg/mL
- anti-RPMI8226 (multiple myeloma) effectiveness [12]: particularly effective
- IC50 [12]: 0.009 µg/mL (≈ 0.0143 µM)
- IC90 [12]: 0.12 µg/mL (≈ 0.191 µM)
- IC50 [13]: 0.02 µg/mL (≈ 0.0318 µM)
- IC90 [13]: 0.05 µg/mL (≈ 0.0794 µM)
- IC50 [14]: 0.01 µg/mL (≈ 0.0159 µM)
- IC90 [14]: 0.022 µg/mL (≈ 0.0349 µM)
- IC50 [15]: 0.006 µg/mL (≈ 0.00953 µM)
- IC90 [15]: 0.021 µg/mL (≈ 0.0333 µM)
- IC50 [16]: 0.012 µg/mL (≈ 0.0191 µM)
- IC90 [16]: ≥ 16 µg/mL
- IC50 [17]: 0.062 µg/mL (≈ 0.0985 µM)
- IC90 [17]: 1.18 µg/mL (≈ 1.87 µM)

Compound: COC(=O)C[C@](O)(CCCC(C)(C)O)C(=O)O[C@@H]1C(OC)=C[C@]23CCCN2CCc2cc4c(cc2[C@H]13)OCO4 [HHT, O-3-[(2R)-2,6-dihydroxy-2-(2′-methoxy-2′-oxoethyl)-6-methylheptanoyl]cephalotaxine, reference compound]
- IC50 [1]: 0.014 µg/mL (≈ 0.0257 µM)
- IC90 [1]: > 16 µg/mL
- IC50 [2]: 0.004 µg/mL (≈ 0.00733 µM)
- IC90 [2]: 0.018 µg/mL (≈ 0.033 µM)
- IC50 [3]: 0.003 µg/mL (≈ 0.0055 µM)
- IC90 [3]: 0.009 µg/mL (≈ 0.0165 µM)
- IC50 (A549 (human lung cancer)): 0.03 µg/mL (≈ 0.055 µM)
- IC90 (A549 (human lung cancer)): > 16 µg/mL
- IC50 [4]: 0.037 µg/mL (≈ 0.0678 µM)
- IC90 [4]: > 16 µg/mL
- IC50 (PC-3 (prostate cancer)): 0.08 µg/mL (≈ 0.147 µM)
- IC90 (PC-3 (prostate cancer)): > 16 µg/mL
- IC50 [5]: 0.038 µg/mL (≈ 0.0696 µM)
- IC90 [5]: > 16 µg/mL
- IC50 (MG63 (osteosarcoma)): 0.01 µg/mL (≈ 0.0183 µM)
- IC90 (MG63 (osteosarcoma)): 1.2 µg/mL (≈ 2.2 µM)
- IC50 [6]: 0.01 µg/mL (≈ 0.0183 µM)
- IC90 [6]: 11.6 µg/mL (≈ 21.2 µM)
- IC50 [7]: 0.035 µg/mL (≈ 0.0641 µM)
- IC90 [7]: > 16 µg/mL
- IC50 [8]: 0.09 µg/mL (≈ 0.165 µM)
- IC90 [8]: > 16 µg/mL
- IC50 [9]: 0.004 µg/mL (≈ 0.00733 µM)
- IC90 [9]: 0.049 µg/mL (≈ 0.0898 µM)
- IC50 [10]: 0.016 µg/mL (≈ 0.0293 µM)
- IC90 [10]: 0.2 µg/mL (≈ 0.367 µM)
- IC50 [11]: 0.019 µg/mL (≈ 0.0348 µM)
- IC90 [11]: 16 µg/mL (≈ 29.3 µM)
- IC50 [12]: 0.006 µg/mL (≈ 0.011 µM)
- IC90 [12]: 0.027 µg/mL (≈ 0.0495 µM)
- IC50 [13]: 0.02 µg/mL (≈ 0.0367 µM)
- IC90 [13]: 0.046 µg/mL (≈ 0.0843 µM)
- IC50 [14]: 0.006 µg/mL (≈ 0.011 µM)
- IC90 [14]: 0.012 µg/mL (≈ 0.022 µM)
- IC50 [15]: 0.005 µg/mL (≈ 0.00916 µM)
- IC90 [15]: 0.024 µg/mL (≈ 0.044 µM)
- IC50 [16]: 0.007 µg/mL (≈ 0.0128 µM)
- IC90 [16]: ≥ 16 µg/mL
- IC50 [17]: 0.035 µg/mL (≈ 0.0641 µM)
- IC90 [17]: 0.98 µg/mL (≈ 1.8 µM)

— patent US9428519B2, “Acylated derivative of homoharringtonine, preparation method therefor, and application thereof” (HANGZHOU BENSHENG PHARMACEUTICAL CO., LTD., priority 2011, dated 2016)
